Earlier results, collected in patent US11452308B2, “Method of selecting a probiotic” (SOCIETE DES PRODUITS NESTLE S.A., priority 2017, dated 2022).

Legend:
[1] = in vivo
[2] = compared with hydroxytyrosol

| Compound | clearance from the plasma [1] | solubility in the lipophilic phases [2] |
| --- | --- | --- |
| CC=C1C(O)OC=C(C(=O)OC)C1CC(=O)OCCc1ccc(O)c(O)c1 (centres unmarked) [oleuropein aglycone, 3,4-dihydroxyphenylethanol-elenolic acid] | slower clearance from the plasma |  |
| hydroxytyrosol acetate |  | more soluble in the lipophilic phases than hydroxytyrosol |
